# Measured values reported in PMC7606486, “CFAP45 deficiency causes situs abnormalities and asthenospermia by disrupting an axonemal adenine nucleotide homeostasis module” (Nature Communications, 2020).
# Legend:
# AK8 = target: T1, AK8 (Homo sapiens, UniProt Q96MA6); assay: AMP-agarose pull-down, anti-FLAG immunoblot; assay type: binding; details: AMP immobilised on agarose, preferentially the αAH-AMP resin; 500 mM NaCl lysis buffer; labelled compound
# T1 sequence (Q96MA6 1-479): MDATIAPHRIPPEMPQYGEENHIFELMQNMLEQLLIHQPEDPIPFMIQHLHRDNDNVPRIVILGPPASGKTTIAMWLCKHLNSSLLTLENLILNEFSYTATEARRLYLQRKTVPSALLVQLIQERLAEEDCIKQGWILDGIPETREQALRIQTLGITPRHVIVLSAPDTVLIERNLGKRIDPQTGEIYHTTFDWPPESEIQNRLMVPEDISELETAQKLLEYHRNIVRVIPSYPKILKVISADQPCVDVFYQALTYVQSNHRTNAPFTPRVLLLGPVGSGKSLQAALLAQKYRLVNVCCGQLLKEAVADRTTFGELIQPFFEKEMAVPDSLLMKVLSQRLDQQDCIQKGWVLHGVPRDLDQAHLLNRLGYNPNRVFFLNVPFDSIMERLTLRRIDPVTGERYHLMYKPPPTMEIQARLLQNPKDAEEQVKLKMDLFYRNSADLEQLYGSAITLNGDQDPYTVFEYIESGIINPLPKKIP
# CFAP45 = target: T2, CFAP45 (Homo sapiens, UniProt Q9UL16); assay: AMP-agarose pull-down, immunoblot or silver stain; assay type: binding; details: AMP immobilised on agarose, best with the 6AH-AMP resin; sperm eluates released with 100 mM free 5'-AMP; 500 mM NaCl lysis buffer, pH 8.0, 4 °C; labelled compound
# T2 construct: full length, 551 aa, 66 kDa
# T2 sequence (Q9UL16 whole entry): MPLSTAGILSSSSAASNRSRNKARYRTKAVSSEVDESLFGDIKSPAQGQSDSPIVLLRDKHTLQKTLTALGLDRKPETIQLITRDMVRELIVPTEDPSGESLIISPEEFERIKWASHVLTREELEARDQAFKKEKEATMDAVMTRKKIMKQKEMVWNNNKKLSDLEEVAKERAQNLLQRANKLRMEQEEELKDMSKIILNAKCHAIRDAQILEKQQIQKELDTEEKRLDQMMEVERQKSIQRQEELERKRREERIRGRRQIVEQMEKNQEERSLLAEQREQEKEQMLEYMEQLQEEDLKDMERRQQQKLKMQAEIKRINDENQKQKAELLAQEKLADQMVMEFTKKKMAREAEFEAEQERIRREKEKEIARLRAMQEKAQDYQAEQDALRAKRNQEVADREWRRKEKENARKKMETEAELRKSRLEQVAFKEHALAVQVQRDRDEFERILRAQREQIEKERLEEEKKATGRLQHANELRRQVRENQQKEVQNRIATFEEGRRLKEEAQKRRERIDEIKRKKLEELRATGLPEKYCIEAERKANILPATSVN
smiles,measurement,setting,value
Nc1ncnc2c1ncn2[C@@H]1O[C@H](COP(=O)(O)O)[C@@H](O)[C@H]1O [AMP],"AMP-agarose pull-down, anti-FLAG immunoblot",AK8,NTAP-AK8 shows affinity to αAH-AMP-agarose following elution and IB with monoclonal anti-FLAG antibody
same,"AMP-agarose pull-down, immunoblot or silver stain",CFAP45,"CFAP45 immunoprecipitates recovered from human sperm (see “Methods”) showed affinity to AMP, especially 6AH-AMP-agarose"
